Like-named read-outs stand apart in the source and are kept apart here.
Legend:
Human M3 receptor = target: T1, Human M3 receptor (Homo sapiens, UniProt P20309); experiment: M3 Receptor Radioligand Binding Assay
T1 construct: purchased Perkin Elmer
Method: Biological Characterization M3 Receptor Radioligand Binding Assay
The assay was carried out in 96-well polypropylene plates in a volume of 250 ul. […] The final assay concentration of DMSO was 0.5% (v/v). The plates were sealed and incubated for 2 h at room temperature on an orbital shaker (slow speed). Membranes were harvested onto 96-well unifilter GF/C filter plates pre-treated with 0.5% polyethyleneimine (v/v), using a filter manifold, washed four times with 200 ul of assay buffer. The plates were dried before addition of 50 μl of microscint-0, sealed then read in a Trilux Microbeta scintillation counter.

Human β2 adrenoceptor = target: T2, Human β2 adrenoceptor (Homo sapiens, UniProt P07550); experiment: β2 Adrenoceptor Radioligand Binding Assay
T2 construct: purchased Perkin Elmer
Method: β2 Adrenoceptor Radioligand Binding Assay
The assay was carried out in 96-well polypropylene plates in a volume of 200 ul. The assay buffer used was 25 mM HEPES, 0.5% BSA (w/v), 1 mM EDTA, 0.02% ascorbic acid (v/v), (pH 7.4). The final assay concentration of DMSO was 0.5% (v/v). The plates were sealed and incubated for 1 h at room temperature on an orbital shaker (slow speed). Membranes were harvested onto 96-well unifilter GF/C filter plates pre-treated with 0.5% polyethyleneimine (v/v), using a filter manifold, washed six times with 200 ul of wash buffer containing 10 mM HEPES and 500 mM NaCl. The plates were dried before addition of 50 μl of microscint-0, sealed then read in a Trilux Microbeta scintillation counter. IC50 values are determined from competition curves using a non-linear curve fitting program. Ki values were calculated from IC50 values by the Cheng and Prusoff equation.

[1] = human M3 receptor membranes, [3H]-N-methyl scopolamine, read-out: M3 binding affinity (Ki class)
[2] = human β2 adrenoceptor membranes, 125-I Cyanopindolol, read-out: B2 binding affinity (Ki class)

T2 sequence (P07550 whole entry): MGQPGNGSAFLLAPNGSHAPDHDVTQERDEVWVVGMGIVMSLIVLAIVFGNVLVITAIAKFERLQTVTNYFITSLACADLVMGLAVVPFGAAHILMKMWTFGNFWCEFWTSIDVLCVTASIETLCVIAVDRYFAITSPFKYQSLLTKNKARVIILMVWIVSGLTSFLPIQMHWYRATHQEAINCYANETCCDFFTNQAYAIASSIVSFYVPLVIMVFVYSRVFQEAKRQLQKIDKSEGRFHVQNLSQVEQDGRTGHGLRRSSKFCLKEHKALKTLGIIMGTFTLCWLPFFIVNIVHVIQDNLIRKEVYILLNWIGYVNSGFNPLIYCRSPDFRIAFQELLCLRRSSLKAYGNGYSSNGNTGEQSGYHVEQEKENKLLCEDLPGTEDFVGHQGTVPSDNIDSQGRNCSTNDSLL
T1 sequence (P20309 whole entry): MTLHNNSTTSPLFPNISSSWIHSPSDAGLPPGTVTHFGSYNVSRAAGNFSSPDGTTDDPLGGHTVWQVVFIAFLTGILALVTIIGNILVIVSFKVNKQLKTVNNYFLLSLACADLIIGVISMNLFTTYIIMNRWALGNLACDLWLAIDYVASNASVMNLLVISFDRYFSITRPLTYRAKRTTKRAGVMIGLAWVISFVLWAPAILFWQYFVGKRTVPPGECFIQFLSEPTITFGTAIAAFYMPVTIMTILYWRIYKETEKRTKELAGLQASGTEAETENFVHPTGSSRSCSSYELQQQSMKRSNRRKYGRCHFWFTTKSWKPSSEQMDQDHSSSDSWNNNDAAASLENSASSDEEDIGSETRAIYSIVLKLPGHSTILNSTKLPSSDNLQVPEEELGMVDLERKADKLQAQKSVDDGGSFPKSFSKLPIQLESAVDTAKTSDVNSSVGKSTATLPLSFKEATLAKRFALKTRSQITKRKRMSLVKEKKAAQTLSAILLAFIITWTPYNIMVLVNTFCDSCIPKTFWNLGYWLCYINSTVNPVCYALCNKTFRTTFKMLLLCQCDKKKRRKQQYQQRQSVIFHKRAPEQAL

CS(=O)(=O)N(Cc1ccc(CNC[C@H](O)c2ccc(O)c3[nH]c(=O)ccc23)cc1)Cc1ccc(C(=O)N2CCC(C(=O)O[C@H]3CN4CCC3CC4)(c3ccccc3)CC2)cc1 [Compound 58, (R)-Quinuclidin-3-yl 1-(4-((N-(4-((((R)-2-hydroxy-2-(8-hydroxy-2-oxo-1,2-dihydroquinolin-5-yl)ethyl)amino)methyl)benzyl)methylsulfonamido)-methyl)benzoyl)-4-phenylpiperidine-4-carboxylate]
Ki (Human M3 receptor; [1]): 1 to 10 nM | Ki (Human β2 adrenoceptor; [2]): 1 to 10 nM

O=C(NCc1ccc(CNC[C@H](O)c2ccc(O)c3[nH]c(=O)ccc23)cc1)c1ccc(C(=O)N2CCC(C(=O)O[C@H]3CN4CCC3CC4)(c3ccccc3)CC2)cc1 [Compound 23, (R)-Quinuclidin-3-yl 1-(4-((4-((((R)-2-hydroxy-2-(8-hydroxy-2-oxo-1,2-dihydroquinolin-5-yl)ethyl)amino)methyl)benzyl)carbamoyl)benzoyl)-4-phenylpiperidine-4-carboxylate]
Ki (Human M3 receptor; [1]): < 1 nM | Ki (Human β2 adrenoceptor; [2]): 1 to 10 nM

COc1cccc(CN(CCCNC[C@H](O)c2ccc(O)c3[nH]c(=O)ccc23)C(=O)Cc2ccc(CC(=O)N3CCC(C(=O)O[C@H]4CN5CCC4CC5)(c4ccccc4)CC3)cc2)c1 [Compound 38, (R)-Quinuclidin-3-yl 1-(2-(4-(2-((3-(((R)-2-hydroxy-2-(8-hydroxy-2-oxo-1,2-dihydroquinolin-5-yl)ethyl)amino)propyl)(3-methoxybenzyl)amino)-2-oxoethyl)phenyl)acetyl)-4-phenylpiperidine-4-carboxylate]
Ki (Human M3 receptor; [1]): < 1 nM | Ki (Human β2 adrenoceptor; [2]): < 1 nM

O=C(c1ccc(CN(Cc2ccc(CNC[C@H](O)c3ccc(O)c4[nH]c(=O)ccc34)cc2)C(=O)c2ccccc2)cc1)N1CCC(C(=O)O[C@H]2CN3CCC2CC3)(c2ccccc2)CC1 [Compound 59, (R)-Quinuclidin-3-yl 1-(4-((N-(4-((((R)-2-hydroxy-2-(8-hydroxy-2-oxo-1,2-dihydroquinolin-5-yl)ethyl)amino)methyl)benzyl)benzamido)methyl)benzoyl)-4-phenylpiperidine-4-carboxylate]
Ki (Human M3 receptor): < 1 nM | Ki (Human β2 adrenoceptor): > 10 nM

O=C(NCCC(=O)N1CCC(C(=O)O[C@H]2CN3CCC2CC3)(c2ccccc2)CC1)c1ccc(CNC[C@H](O)c2ccc(O)c3[nH]c(=O)ccc23)cc1 [Compound 31, (R)-Quinuclidin-3-yl 1-(3-(4-((((R)-2-hydroxy-2-(8-hydroxy-2-oxo-1,2-dihydroquinolin-5-yl)ethyl)amino)methyl)benzamido)propanoyl)-4-phenylpiperidine-4-carboxylate]
Ki (Human M3 receptor; [1]): 1 to 10 nM | Ki (Human β2 adrenoceptor; [2]): < 1 nM

O=C(c1ccc(OCc2cccc(OCCCCNC[C@H](O)c3ccc(O)c4[nH]c(=O)ccc34)c2)cc1)N1CC(C(=O)O[C@H]2CN3CCC2CC3)(c2ccccc2)C1 [Compound 7A, (R)-Quinuclidin-3-yl 1-(4-((3-(4-(((R)-2-hydroxy-2-(8-hydroxy-2-oxo-1,2-dihydroquinolin-5-yl)ethyl)amino)butoxy)benzyl)oxy)benzoyl)-3-phenylazetidine-3-carboxylate]
Ki (Human M3 receptor; [1]): 1 to 10 nM | Ki (Human β2 adrenoceptor; [2]): < 1 nM

CCN(CCCNC[C@H](O)c1ccc(O)c2[nH]c(=O)ccc12)C(=O)c1ccc(C(=O)N2CCC(C(=O)O[C@H]3CN4CCC3CC4)(c3ccccc3)CC2)cc1 [Compound 25, (R)-Quinuclidin-3-yl 1-(4-(ethyl(3-(((R)-2-hydroxy-2-(8-hydroxy-2-oxo-1,2-dihydroquinolin-5-yl)ethyl)amino)propyl)carbamoyl)benzoyl)-4-phenylpiperidine-4-carboxylate]
Ki (Human M3 receptor; [1]): 1 to 10 nM | Ki (Human β2 adrenoceptor; [2]): 1 to 10 nM

O=C(Cc1ccc(OCc2ccc(CNC[C@H](O)c3ccc(O)c4[nH]c(=O)ccc34)cc2)cc1)N1CCC(C(=O)O[C@H]2CN3CCC2CC3)(c2ccccc2)CC1 [Compound 55, (R)-Quinuclidin-3-yl 1-(2-(4-((4-((((R)-2-hydroxy-2-(8-hydroxy-2-oxo-1,2-dihydroquinolin-5-yl)ethyl)amino)methyl)benzyl)oxy)phenyl)acetyl)-4-phenylpiperidine-4-carboxylate]
Ki (Human M3 receptor; [1]): < 1 nM | Ki (Human β2 adrenoceptor; [2]): < 1 nM

Cc1ccc(CN(CCCNC[C@H](O)c2ccc(O)c3[nH]c(=O)ccc23)C(=O)Cc2ccc(CC(=O)N3CCC(C(=O)O[C@H]4CN5CCC4CC5)(c4ccccc4)CC3)cc2)cc1 [Compound 33, (R)-Quinuclidin-3-yl 1-(2-(4-(2-((3-(((R)-2-hydroxy-2-(8-hydroxy-2-oxo-1,2-dihydroquinolin-5-yl)ethyl)amino)propyl)(4-methylbenzyl)amino)-2-oxoethyl)phenyl)acetyl)-4-phenylpiperidine-4-carboxylate]
Ki (Human M3 receptor; [1]): < 1 nM | Ki (Human β2 adrenoceptor; [2]): 1 to 10 nM

O=C(Cc1ccc(CC(=O)N(CCCNC[C@H](O)c2ccc(O)c3[nH]c(=O)ccc23)Cc2cccc(Oc3ccc(Cl)c(Cl)c3)c2)cc1)N1CCC(C(=O)O[C@H]2CN3CCC2CC3)(c2ccccc2)CC1 [Compound 40, (R)-Quinuclidin-3-yl 1-(2-(4-(2-((3-(3,4-dichlorophenoxy)benzyl)(3-(((R)-2-hydroxy-2-(8-hydroxy-2-oxo-1,2-dihydroquinolin-5-yl)ethyl)amino)propyl)amino)-2-oxoethyl)phenyl)acetyl)-4-phenylpiperidine-4-carboxylate]
Ki (Human M3 receptor; [1]): < 1 nM | Ki (Human β2 adrenoceptor; [2]): 1 to 10 nM

O=C(c1ccc(OCc2ccc(CNC[C@H](O)c3ccc(O)c4[nH]c(=O)ccc34)cc2)cc1)N1CCC(C(=O)O[C@H]2CN3CCC2CC3)(c2ccccc2)CC1 [Compound 24, (R)-Quinuclidin-3-yl 1-(4-((4-((((R)-2-hydroxy-2-(8-hydroxy-2-oxo-1,2-dihydroquinolin-5-yl)ethyl)amino)methyl)benzyl)oxy)benzoyl)-4-phenylpiperidine-4-carboxylate]
Ki (Human M3 receptor; [1]): < 1 nM | Ki (Human β2 adrenoceptor; [2]): < 1 nM

O=C(CCc1ccc(OCCCCNC[C@H](O)c2ccc(O)c3[nH]c(=O)ccc23)cc1)N1CCC(C(=O)O[C@H]2CN3CCC2CC3)(c2ccccc2)CC1 [Compound 32, (R)-Quinuclidin-3-yl 1-(3-(4-(4-(((R)-2-hydroxy-2-(8-hydroxy-2-oxo-1,2-dihydroquinolin-5-yl)ethyl)amino)butoxy)phenyl)propanoyl)-4-phenylpiperidine-4-carboxylate]
Ki (Human M3 receptor; [1]): < 1 nM | Ki (Human β2 adrenoceptor; [2]): < 1 nM

Cc1cccc(CN(CCCNC[C@H](O)c2ccc(O)c3[nH]c(=O)ccc23)C(=O)Cc2ccc(CC(=O)N3CCC(C(=O)O[C@H]4CN5CCC4CC5)(c4ccccc4)CC3)cc2)c1 [Compound 35, (R)-Quinuclidin-3-yl 1-(2-(4-(2-((3-(((R)-2-hydroxy-2-(8-hydroxy-2-oxo-1,2-dihydroquinolin-5-yl)ethyl)amino)propyl)(3-methylbenzyl)amino)-2-oxoethyl)phenyl)acetyl)-4-phenylpiperidine-4-carboxylate]
Ki (Human M3 receptor; [1]): < 1 nM | Ki (Human β2 adrenoceptor; [2]): < 1 nM

O=C(c1ccc(OCCCCCNC[C@H](O)c2ccc(O)c3[nH]c(=O)ccc23)cc1)N1CC(C(=O)O[C@H]2CN3CCC2CC3)(c2ccccc2)C1 [Compound 1A, (R)-Quinuclidin-3-yl 1-(4-((5-(((R)-2-hydroxy-2-(8-hydroxy-2-oxo-1,2-dihydroquinolin-5-yl)ethyl)amino)pentyl)oxy)benzoyl)-3-phenylazetidine-3-carboxylate]
Ki (Human M3 receptor; [1]): 1 to 10 nM | Ki (Human β2 adrenoceptor; [2]): < 1 nM

Cc1cc(C(=O)N2CCC(C(=O)O[C@H]3CN4CCC3CC4)(c3ccccc3)CC2)ccc1OCCCCCNC[C@H](O)c1ccc(O)c2[nH]c(=O)ccc12 [Compound 10, (R)-Quinuclidin-3-yl 1-(4-((5-(((R)-2-hydroxy-2-(8-hydroxy-2-oxo-1,2-dihydroquinolin-5-yl)ethyl)amino)pentyl)oxy)-3-methylbenzoyl)-4-phenylpiperidine-4-carboxylate]
Ki (Human M3 receptor; [1]): 1 to 10 nM | Ki (Human β2 adrenoceptor; [2]): < 1 nM

O=C(Cc1ccc(OCc2ccc(CNC[C@H](O)c3ccc(O)c4[nH]c(=O)ccc34)cc2)cc1)N1CC(C(=O)O[C@H]2CN3CCC2CC3)(c2ccccc2)C1 [Compound 15A, (R)-Quinuclidin-3-yl 1-(2-(4-((4-((((R)-2-hydroxy-2-(8-hydroxy-2-oxo-1,2-dihydroquinolin-5-yl)ethyl)amino)methyl)benzyl)oxy)phenyl)acetyl)-3-phenylazetidine-3-carboxylate]
Ki (Human M3 receptor; [1]): < 1 nM | Ki (Human β2 adrenoceptor; [2]): < 1 nM

O=C(c1ccc(CN(Cc2ccc(CNC[C@H](O)c3ccc(O)c4[nH]c(=O)ccc34)cc2)S(=O)(=O)c2ccccc2)cc1)N1CCC(C(=O)O[C@H]2CN3CCC2CC3)(c2ccccc2)CC1 [Compound 61, (R)-Quinuclidin-3-yl 1-(4-((N-(4-((((R)-2-hydroxy-2-(8-hydroxy-2-oxo-1,2-dihydroquinolin-5-yl)ethyl)amino)methyl)benzyl)phenylsulfonamido)-methyl)benzoyl)-4-phenylpiperidine-4-carboxylate]
Ki (Human M3 receptor): < 1 nM | Ki (Human β2 adrenoceptor): > 10 nM

COC(=O)N(Cc1ccc(CNC[C@H](O)c2ccc(O)c3[nH]c(=O)ccc23)cc1)Cc1ccc(C(=O)N2CCC(C(=O)O[C@H]3CN4CCC3CC4)(c3ccccc3)CC2)cc1 [Compound 62, (R)-Quinuclidin-3-yl 1-(4-(((4-((((R)-2-hydroxy-2-(8-hydroxy-2-oxo-1,2-dihydroquinolin-5-yl)ethyl)amino)methyl)benzyl)(methoxycarbonyl)amino)-methyl)benzoyl)-4-phenylpiperidine-4-carboxylate]
Ki (Human M3 receptor; [1]): < 1 nM | Ki (Human β2 adrenoceptor; [2]): 1 to 10 nM

From US9662323B2, “Compounds having muscarinic receptor antagonist and beta2 adrenergic receptor agonist activity” (CHIESI FARMACEUTICI S.p.A., priority 2015, dated 2017)
